Source: patent US20260297085A1, “1 H-PYRROLO[2,3-B]PYRIDIN-4-YL]-2-OXOPYRROLIDINE-3-CARBONITRILE DERIVATIVES AS TYROSINE KINASE 2 (TYK2) INHIBITORS FOR THE TREATMENT OF INFLAMMATORY DISEASES” (BIOGEN MA INC., priority 2023, published 2026)
Structures can show the parent of a compound that is named as a salt.

What was measured:
[1] = target: JAK1 kinase activity on STAT3 in TF1 cells (Homo sapiens, UniProt P23458); experiment: pSTAT3 cell assay (MSD; TF1 cells, 30 ng/mL IL-6 stimulation); assay type: cell-based; details: 30 ng/mL IL-6, 15 minutes
Procedure: The inhibitory potency of compounds of the disclosure against the JAK1 kinase activity on STAT3 was evaluated using an MSD-platform plate-based assay format. TF1 cells natively expressing STAT3 and JAK1 were serum-starved to reduce background phosphorylation levels, then cells were treated with compounds of the disclosure for 1 hour with a 10-point four-fold dilution series starting at 10 μM. Cells were then stimulated with 30 ng/mL interleukin 6 (IL-6) for 15 minutes. Cells were lysed and pSTAT3 levels were quantitated using an MSD plate-based assay with anti-STAT3 antibodies. The data were normalized and the percent activity versus log concentration of compound was fitted with a 4-parameter logistic model to generate IC50 curves.

[2] = target: T1, human TYK2 kinase domain (JH1) (Homo sapiens, UniProt P29597); experiment: JH1 biochemical assay for TYK2 (ADP-Glo kinase assay, recombinant JH1 catalytic domain, JAK3-974 peptide, 10 μM ATP)
T1 construct: recombinantly generated catalytic kinase (also known as JH1) domain of human JAK1, JAK2, JAK3 and TYK2
T1 sequence (P29597 897-1176 limits assumed): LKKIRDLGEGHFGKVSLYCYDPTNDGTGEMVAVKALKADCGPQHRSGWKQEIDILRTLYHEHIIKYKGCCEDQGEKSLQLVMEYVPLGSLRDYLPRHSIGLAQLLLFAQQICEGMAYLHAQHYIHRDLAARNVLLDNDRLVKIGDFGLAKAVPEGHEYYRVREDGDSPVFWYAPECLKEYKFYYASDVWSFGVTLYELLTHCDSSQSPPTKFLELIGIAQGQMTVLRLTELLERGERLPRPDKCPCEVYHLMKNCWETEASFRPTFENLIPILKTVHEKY
Summary of the method: (§1)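 Luminescent ADP read-out after residual ATP depletion, 100 min reaction. Kinase domain concentrations were 4 nM (JAK1), 0.2 nM (JAK2), 0.3 nM (JAK3) and 2 nM (TYK2), each with 50 μM peptide. IC50 values came from 4-parameter logistic fits over 11 points, 3-fold steps, top 10 μM or 1 μM.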

[3] = target: T2, human JAK3 kinase domain (JH1) (Homo sapiens, UniProt P52333); experiment: JH1 biochemical assay for JAK3 (ADP-Glo kinase assay, recombinant JH1 catalytic domain, JAK3-974 peptide, 4 μM ATP)
T2 construct: recombinantly generated catalytic kinase (also known as JH1) domain of human JAK1, JAK2, JAK3 and TYK2
Summary of the method: as §1

[4] = target: Tyk2 kinase activity on STAT4 in NK92 cells (Homo sapiens, UniProt P29597); experiment: pSTAT4 cell assay (MSD; NK92 cells, 30 ng/mL IL2 stimulation); assay type: cell-based; details: 30 ng/mL IL2, 15 minutes
Procedure: The inhibitory potency of compounds of the disclosure against the Tyk2 kinase activity on STAT4 was evaluated using an MSD-platform plate-based assay format. NK92 cells natively expressing STAT4 and Tyk2 were serum-starved to reduce background phosphorylation levels, then cells were treated compounds for 1 hr with a 10-point four-fold dilution series starting at 10 μM. Cells were then stimulated with 30 ng/mL IL2 for 15 minutes. Cells were lysed and […] levels were quantitated using an MSD plate-based assay with anti-STAT4 antibodies. The data were normalized and the percent activity versus log concentration of compound were fitted with a 4-parameter logistic model to generate to generate IC50 curves.

[5] = target: T3, human JAK1 kinase domain (JH1) (Homo sapiens, UniProt P23458); experiment: JH1 biochemical assay for JAK1 (ADP-Glo kinase assay, recombinant JH1 catalytic domain, JAK3-342 peptide, 35 μM ATP)
T3 construct: recombinantly generated catalytic kinase (also known as JH1) domain of human JAK1, JAK2, JAK3 and TYK2
Summary of the method: as §1

[6] = target: T4, human JAK2 kinase domain (JH1) (Homo sapiens, UniProt O60674); experiment: JH1 biochemical assay for JAK2 (ADP-Glo kinase assay, recombinant JH1 catalytic domain, JAK3-974 peptide, 15 μM ATP)
T4 construct: recombinantly generated catalytic kinase (also known as JH1) domain of human JAK1, JAK2, JAK3 and TYK2
Summary of the method: as §1

[7] = target: JAK2 kinase activity on STAT5 in TF1 cells (Homo sapiens, UniProt O60674); experiment: pSTAT5 cell assay (MSD; TF1 cells, 30 ng/mL IL-3 stimulation); assay type: cell-based; details: 30 ng/mL IL-3, 15 minutes
Procedure: The inhibitory potency of compounds of the disclosure against the JAK2 kinase activity on STAT5 was evaluated using an MSD-platform plate-based assay format. TF1 cells natively expressing STAT5 and JAK2 were serum-starved to reduce background phosphorylation levels, then cells were treated with compounds of disclosure for 1 hour with a 10-point four-fold dilution series starting at 10 μM. Cells were then stimulated with 30 ng/mL IL-3 for 15 minutes. Cells were then lysed and pSTAT5 levels were quantitated using an MSD plate-based assay with anti-STAT5 antibodies. The data were normalized and the percent activity versus log concentration of compound was fitted with a 4-parameter logistic model to generate a curve and an IC50 value.

T4 sequence (O60674 849-1124 limits assumed): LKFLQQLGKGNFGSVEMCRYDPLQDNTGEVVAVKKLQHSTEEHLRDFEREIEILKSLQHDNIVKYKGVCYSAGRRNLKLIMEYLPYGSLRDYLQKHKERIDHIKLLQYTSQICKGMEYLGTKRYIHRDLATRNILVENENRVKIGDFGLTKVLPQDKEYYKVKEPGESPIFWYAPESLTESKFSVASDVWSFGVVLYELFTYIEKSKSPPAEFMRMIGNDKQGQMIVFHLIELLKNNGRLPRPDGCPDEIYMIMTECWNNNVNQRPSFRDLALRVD
T2 sequence (P52333 822-1111 limits assumed): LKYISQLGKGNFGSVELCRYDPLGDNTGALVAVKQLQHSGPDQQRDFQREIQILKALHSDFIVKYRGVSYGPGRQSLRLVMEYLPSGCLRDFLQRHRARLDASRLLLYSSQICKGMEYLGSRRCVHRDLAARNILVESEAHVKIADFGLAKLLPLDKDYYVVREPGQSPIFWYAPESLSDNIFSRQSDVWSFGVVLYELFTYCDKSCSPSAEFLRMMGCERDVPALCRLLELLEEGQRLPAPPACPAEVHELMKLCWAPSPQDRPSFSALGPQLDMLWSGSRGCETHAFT
Sequence of JAK1 kinase activity on STAT3 in TF1 cells (P23458 whole entry): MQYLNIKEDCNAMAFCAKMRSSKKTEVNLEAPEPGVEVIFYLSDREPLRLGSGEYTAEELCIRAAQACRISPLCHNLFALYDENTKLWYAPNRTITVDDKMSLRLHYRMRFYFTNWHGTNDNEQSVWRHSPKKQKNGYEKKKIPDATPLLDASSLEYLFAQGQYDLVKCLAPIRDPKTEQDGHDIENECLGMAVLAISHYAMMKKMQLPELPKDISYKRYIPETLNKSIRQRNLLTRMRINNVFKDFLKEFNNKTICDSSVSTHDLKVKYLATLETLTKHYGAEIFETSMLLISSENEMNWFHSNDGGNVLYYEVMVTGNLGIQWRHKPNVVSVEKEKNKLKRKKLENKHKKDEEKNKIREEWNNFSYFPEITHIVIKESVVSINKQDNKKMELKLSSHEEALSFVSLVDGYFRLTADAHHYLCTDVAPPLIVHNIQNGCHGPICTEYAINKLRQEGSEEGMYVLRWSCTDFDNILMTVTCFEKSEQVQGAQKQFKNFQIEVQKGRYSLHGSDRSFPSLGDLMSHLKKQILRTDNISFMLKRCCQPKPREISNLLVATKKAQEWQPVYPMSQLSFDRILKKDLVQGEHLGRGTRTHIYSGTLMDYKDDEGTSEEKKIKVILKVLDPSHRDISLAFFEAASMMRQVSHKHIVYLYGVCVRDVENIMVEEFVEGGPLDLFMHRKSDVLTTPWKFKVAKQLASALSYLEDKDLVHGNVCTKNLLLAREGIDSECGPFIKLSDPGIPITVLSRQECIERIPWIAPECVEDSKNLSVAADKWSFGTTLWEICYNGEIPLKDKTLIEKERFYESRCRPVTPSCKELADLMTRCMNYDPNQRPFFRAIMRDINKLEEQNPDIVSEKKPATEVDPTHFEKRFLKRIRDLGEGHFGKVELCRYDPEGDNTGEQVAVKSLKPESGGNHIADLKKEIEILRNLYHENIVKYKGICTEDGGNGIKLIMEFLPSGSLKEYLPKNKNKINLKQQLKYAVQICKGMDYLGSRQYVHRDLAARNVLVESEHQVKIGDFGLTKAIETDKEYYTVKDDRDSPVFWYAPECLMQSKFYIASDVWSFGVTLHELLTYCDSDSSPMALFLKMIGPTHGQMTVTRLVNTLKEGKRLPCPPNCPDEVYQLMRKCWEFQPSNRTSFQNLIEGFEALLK
T3 sequence (P23458 875-1153 limits assumed): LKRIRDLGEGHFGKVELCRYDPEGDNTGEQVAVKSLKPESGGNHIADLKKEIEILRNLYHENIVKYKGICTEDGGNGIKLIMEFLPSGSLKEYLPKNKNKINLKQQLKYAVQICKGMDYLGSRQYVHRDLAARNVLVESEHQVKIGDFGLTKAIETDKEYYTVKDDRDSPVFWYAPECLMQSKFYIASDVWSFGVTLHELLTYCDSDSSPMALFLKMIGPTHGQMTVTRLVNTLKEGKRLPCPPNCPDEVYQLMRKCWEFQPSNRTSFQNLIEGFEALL
Sequence of Tyk2 kinase activity on STAT4 in NK92 cells (P29597 whole entry): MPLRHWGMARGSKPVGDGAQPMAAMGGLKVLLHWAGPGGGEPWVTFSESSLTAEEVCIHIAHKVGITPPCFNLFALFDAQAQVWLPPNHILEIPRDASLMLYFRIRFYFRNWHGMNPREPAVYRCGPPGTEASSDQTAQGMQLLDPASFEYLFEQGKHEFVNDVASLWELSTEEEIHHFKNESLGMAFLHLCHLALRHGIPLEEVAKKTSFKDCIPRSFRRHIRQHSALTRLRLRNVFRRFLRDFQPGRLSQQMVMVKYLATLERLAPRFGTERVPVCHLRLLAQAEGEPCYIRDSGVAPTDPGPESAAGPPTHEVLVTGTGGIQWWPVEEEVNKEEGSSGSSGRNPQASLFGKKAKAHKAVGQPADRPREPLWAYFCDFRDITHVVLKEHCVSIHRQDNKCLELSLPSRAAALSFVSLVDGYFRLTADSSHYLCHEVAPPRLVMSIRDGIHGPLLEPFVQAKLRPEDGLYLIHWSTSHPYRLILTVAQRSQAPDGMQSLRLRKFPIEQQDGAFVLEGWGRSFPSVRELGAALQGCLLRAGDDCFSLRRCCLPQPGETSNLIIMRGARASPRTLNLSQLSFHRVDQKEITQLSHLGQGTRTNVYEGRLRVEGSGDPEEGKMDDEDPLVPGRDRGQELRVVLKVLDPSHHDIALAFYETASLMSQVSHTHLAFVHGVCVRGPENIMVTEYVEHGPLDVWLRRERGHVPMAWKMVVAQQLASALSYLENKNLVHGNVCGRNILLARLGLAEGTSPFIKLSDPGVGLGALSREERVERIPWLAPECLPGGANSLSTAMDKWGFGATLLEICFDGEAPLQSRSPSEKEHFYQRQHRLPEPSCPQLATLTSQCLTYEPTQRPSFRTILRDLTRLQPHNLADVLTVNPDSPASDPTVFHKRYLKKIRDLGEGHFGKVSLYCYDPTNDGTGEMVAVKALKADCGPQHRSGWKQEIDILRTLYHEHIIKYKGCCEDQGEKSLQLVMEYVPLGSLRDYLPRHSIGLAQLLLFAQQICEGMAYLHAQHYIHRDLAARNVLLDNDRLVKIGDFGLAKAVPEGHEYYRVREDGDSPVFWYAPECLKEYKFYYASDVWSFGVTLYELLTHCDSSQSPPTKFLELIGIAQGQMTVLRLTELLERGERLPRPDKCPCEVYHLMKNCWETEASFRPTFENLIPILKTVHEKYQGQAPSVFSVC
Sequence of JAK2 kinase activity on STAT5 in TF1 cells (O60674 whole entry): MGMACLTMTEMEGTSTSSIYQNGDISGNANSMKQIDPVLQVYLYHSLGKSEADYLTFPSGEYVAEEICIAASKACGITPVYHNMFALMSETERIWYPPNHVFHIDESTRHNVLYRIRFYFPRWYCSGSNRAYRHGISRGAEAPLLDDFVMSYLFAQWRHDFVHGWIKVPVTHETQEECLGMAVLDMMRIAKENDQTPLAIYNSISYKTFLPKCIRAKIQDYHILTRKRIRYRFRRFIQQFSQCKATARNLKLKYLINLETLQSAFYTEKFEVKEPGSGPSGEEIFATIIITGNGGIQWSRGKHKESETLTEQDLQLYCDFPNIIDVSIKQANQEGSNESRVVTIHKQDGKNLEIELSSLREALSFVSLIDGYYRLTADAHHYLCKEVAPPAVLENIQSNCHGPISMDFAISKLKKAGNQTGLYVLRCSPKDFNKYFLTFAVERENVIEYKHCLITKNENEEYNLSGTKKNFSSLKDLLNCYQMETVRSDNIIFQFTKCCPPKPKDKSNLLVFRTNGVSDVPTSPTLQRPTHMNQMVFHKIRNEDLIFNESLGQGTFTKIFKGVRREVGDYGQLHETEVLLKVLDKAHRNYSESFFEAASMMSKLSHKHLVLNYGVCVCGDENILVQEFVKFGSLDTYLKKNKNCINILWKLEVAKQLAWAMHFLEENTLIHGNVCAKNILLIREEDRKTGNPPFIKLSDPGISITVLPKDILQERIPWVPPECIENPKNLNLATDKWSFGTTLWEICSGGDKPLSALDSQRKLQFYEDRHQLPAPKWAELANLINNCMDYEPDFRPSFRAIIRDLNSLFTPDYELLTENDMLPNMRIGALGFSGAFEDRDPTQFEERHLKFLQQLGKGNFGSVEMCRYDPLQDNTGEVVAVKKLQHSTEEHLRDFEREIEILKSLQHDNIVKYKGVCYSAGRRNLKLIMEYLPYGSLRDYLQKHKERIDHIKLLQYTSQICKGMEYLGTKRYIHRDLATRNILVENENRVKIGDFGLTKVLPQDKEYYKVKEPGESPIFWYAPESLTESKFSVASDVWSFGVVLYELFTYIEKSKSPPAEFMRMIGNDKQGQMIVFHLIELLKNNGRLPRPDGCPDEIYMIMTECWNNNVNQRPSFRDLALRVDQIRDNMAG

SMILES	IC50 [1]	IC50 ([2]; JH1 kinase domain, ADP-Glo)	IC50 ([3]; JH1 kinase domain, ADP-Glo)	IC50 [4]	IC50 ([5]; JH1 kinase domain, ADP-Glo)	IC50 ([6]; JH1 kinase domain, ADP-Glo)	IC50 [7]	IC50 ([2]; TYK2 JH1, ADP-Glo)	IC50 ([3]; JAK3 JH1, ADP-Glo)	IC50 ([5]; JAK1 JH1, ADP-Glo)	IC50 ([6]; JAK2 JH1, ADP-Glo)
Cc1c(-c2cc3c(N4C[C@@H](C)[C@@](C#N)(C5CC5)C4=O)ccnn3c2)cnn1C [Example 166, (3R,4S)-3-cyclopropyl-1-(6-(1,5-dimethyl-1H-pyrazol-4-yl)pyrrolo[1,2-b]pyridazin-4-yl)-4-methyl-2-oxopyrrolidine-3-carbonitrile]	> 10000 nM	5 to 20 nM	100 to 1000 nM	> 100 nM	100 to 1000 nM	100 to 1000 nM	> 10000 nM	–	–	–	–
CNC(=O)c1cc(-c2cn3nccc3c(N3C[C@@H](C)[C@@](C#N)(C4CC4)C3=O)n2)ccn1 [Example 252, 4-(4-((3R,4S)-3-cyano-3-cyclopropyl-4-methyl-2-oxopyrrolidin-1-yl)pyrazolo[1,5-a]pyrazin-6-yl)-N-methylpicolinamide trifluoroacetate]	1000 to 5000 nM	–	–	> 100 nM	–	–	> 10000 nM	5 to 20 nM	100 to 1000 nM	100 to 1000 nM	100 to 1000 nM
C[C@@H]1CN(c2ccnn3cc(-c4cncc(F)c4)cc23)C(=O)[C@]1(C#N)C1CC1 [Example 84, (3R,4S)-3-cyclopropyl-1-(6-(5-fluoropyridin-3-yl)pyrrolo[1,2-b]pyridazin-4-yl)-4-methyl-2-oxopyrrolidine-3-carbonitrile]	5000 to 10000 nM	5 to 20 nM	100 to 1000 nM	> 100 nM	100 to 1000 nM	1000 to 5000 nM	> 10000 nM	–	–	–	–
C[C@@H]1CN(c2ccnn3cc(-c4ccc(N(C)C)cn4)cc23)C(=O)[C@]1(C#N)C1CC1 [Example 134, (3R,4S)-3-cyclopropyl-1-(6-(5-(dimethylamino)pyridin-2-yl)pyrrolo[1,2-b]pyridazin-4-yl)-4-methyl-2-oxopyrrolidine-3-carbonitrile trifluoroacetate]	1000 to 5000 nM	5 to 20 nM	100 to 1000 nM	> 100 nM	100 to 1000 nM	100 to 1000 nM	5000 to 10000 nM	–	–	–	–
C[C@@H]1CN(c2ccnn3cc(-c4ccc5ncnn5c4)cc23)C(=O)[C@]1(C#N)C1CC1 [Example 57, (3R,4S)-1-(6-([1,2,4]triazolo[1,5-a]pyridin-6-yl)pyrrolo[1,2-b]pyridazin-4-yl)-3-cyclopropyl-4-methyl-2-oxopyrrolidine-3-carbonitrile]	1000 to 5000 nM	5 to 20 nM	100 to 1000 nM	> 100 nM	100 to 1000 nM	100 to 1000 nM	> 10000 nM	–	–	–	–
C[C@@H]1CN(c2ccnn3cc(-c4cnn(C5CC6(C5)CN(C)C6)c4)cc23)C(=O)[C@]1(C#N)C1CC1 [Example 315, (3R,4S)-3-cyclopropyl-4-methyl-1-(6-(1-(2-methyl-2-azaspiro[3.3]heptan-6-yl)-1H-pyrazol-4-yl)pyrrolo[1,2-b]pyridazin-4-yl)-2-oxopyrrolidine-3-carbonitrile]	1000 to 5000 nM	–	–	50 to 100 nM	–	–	1000 to 5000 nM	< 5 nM	< 100 nM	100 to 1000 nM	100 to 1000 nM
C[C@@H]1CN(c2ccnn3cc(-c4cnn([C@H]5CC5(F)F)c4)cc23)C(=O)[C@]1(C#N)C1CC1 (single isomer, unassigned) [Example 156]	1000 to 5000 nM	< 5 nM	< 100 nM	50 to 100 nM	100 to 1000 nM	100 to 1000 nM	1000 to 5000 nM	–	–	–	–
C[C@@H]1CN(c2ccnn3cc(-c4ccc(C(F)(F)F)nc4)cc23)C(=O)[C@]1(C#N)C1CC1 [Example 74, (3R,4S)-3-cyclopropyl-4-methyl-2-oxo-1-(6-(6-(trifluoromethyl)pyridin-3-yl)pyrrolo[1,2-b]pyridazin-4-yl)pyrrolidine-3-carbonitrile]	5000 to 10000 nM	5 to 20 nM	100 to 1000 nM	> 100 nM	100 to 1000 nM	1000 to 5000 nM	> 10000 nM	–	–	–	–

The next lines start with the values.

IC50 [1]	IC50 ([2]; JH1 kinase domain, ADP-Glo)	IC50 ([3]; JH1 kinase domain, ADP-Glo)	IC50 [4]	IC50 ([5]; JH1 kinase domain, ADP-Glo)	IC50 ([6]; JH1 kinase domain, ADP-Glo)	IC50 [7]	IC50 ([2]; TYK2 JH1, ADP-Glo)	IC50 ([3]; JAK3 JH1, ADP-Glo)	IC50 ([5]; JAK1 JH1, ADP-Glo)	IC50 ([6]; JAK2 JH1, ADP-Glo)	SMILES
1000 to 5000 nM	5 to 20 nM	100 to 1000 nM	> 100 nM	100 to 1000 nM	100 to 1000 nM	> 10000 nM	–	–	–	–	C[C@@H]1CN(c2ccnn3cc(-c4ccnc(F)c4)cc23)C(=O)[C@]1(C#N)C1CC1 [Example 73, (3R,4S)-3-cyclopropyl-1-(6-(2-fluoropyridin-4-yl)pyrrolo[1,2-b]pyridazin-4-yl)-4-methyl-2-oxopyrrolidine-3-carbonitrile]
100 to 1000 nM	< 5 nM	< 100 nM	20 to 50 nM	< 100 nM	< 100 nM	100 to 1000 nM	–	–	–	–	Cn1cc(-c2cc3c(N4CC[C@@](C#N)(C5CC5)C4=O)ccnc3[nH]2)cn1 [Example 4, (S)-3-cyclopropyl-1-(2-(1-methyl-1H-pyrazol-4-yl)-1H-pyrrolo[2,3-b]pyridin-4-yl)-2-oxopyrrolidine-3-carbonitrile]
100 to 1000 nM	< 5 nM	< 100 nM	20 to 50 nM	< 100 nM	< 100 nM	< 100 nM	–	–	–	–	C[C@@H]1CN(c2nc(-c3cnn(C4CCOCC4)c3)cn3nccc23)C(=O)[C@]1(C#N)C1CC1 [Example 203, (3R,4S)-3-cyclopropyl-4-methyl-2-oxo-1-(6-(1-(tetrahydro-2H-pyran-4-yl)-1H-pyrazol-4-yl)pyrazolo[1,5-a]pyrazin-4-yl)pyrrolidine-3-carbonitrile]
100 to 1000 nM	–	–	20 to 50 nM	–	–	1000 to 5000 nM	< 5 nM	< 100 nM	< 100 nM	< 100 nM	C[C@@H]1CN(c2nc(-c3cnn([C@H]4CO[C@@H]4C)c3)cn3ncc(F)c23)C(=O)[C@]1(C#N)C1CC1 (relative stereo) [Example 306, (3R,4S)-3-cyclopropyl-1-(3-fluoro-6-(1-((2R,3 S)-2-methyloxetan-3-yl)-1H-pyrazol-4-yl)pyrazolo[1,5-a]pyrazin-4-yl)-4-methyl-2-oxopyrrolidine-3-carbonitrile and (3R,4S)-3-cyclopropyl-1-(3-fluoro-6-(1-((2S,3R)-2-methyloxetan-3-yl)-1H-pyrazol-4-yl)pyrazolo[1,5-a]pyrazin-4-yl)-4-methyl-2-oxopyrrolidine-3-carbonitrile]
100 to 1000 nM	–	–	20 to 50 nM	–	–	100 to 1000 nM	< 5 nM	< 100 nM	< 100 nM	< 100 nM	C[C@@H]1CN(c2nc(-c3cnn(C4COC4)c3)cn3nccc23)C(=O)[C@]1(C#N)C1CC1 [Example 251, (3R,4S)-3-cyclopropyl-4-methyl-1-(6-(1-(oxetan-3-yl)-1H-pyrazol-4-yl)pyrazolo[1,5-a]pyrazin-4-yl)-2-oxopyrrolidine-3-carbonitrile]
100 to 1000 nM	–	–	> 100 nM	–	–	1000 to 5000 nM	< 5 nM	< 100 nM	100 to 1000 nM	100 to 1000 nM	C[C@@H]1CN(c2ccnc3cc(-c4cnn(C56CC(C5)C6)c4)oc23)C(=O)[C@]1(C#N)C1CC1 [Example 344, (3R,4S)-1-(2-(1-(bicyclo[1.1.1]pentan-1-yl)-1H-pyrazol-4-yl)furo[3,2-b]pyridin-7-yl)-3-cyclopropyl-4-methyl-2-oxopyrrolidine-3-carbonitrile]
